Results reported in patent US20210154281A1, “CELL-BASED CANCER VACCINES AND CANCER THERAPIES” (Massachusetts Institute of Technology, priority 2019, published 2021).
Like-named read-outs stand apart in the source and are kept apart here.

Assays:
[1] = test system: B16F10 melanoma tumor cell line; assay: Cell death by AnnexinV/DAPI staining 48 hours after drug treatment; format: cell-based, mouse; settings: 48 hours; for cell death by DAPI and Annexin V staining: at the concentrations used; for cytotoxicity at 10 µM / viability at 10 µM / cytotoxicity at 50 µM / viability at 50 µM: Mus musculus, B16-F10; for viability at 10 µM / viability at 50 µM: read-out: AnnV−DAPI− (%) Mean
Description: For assessment of cell death, floating and attached cells were harvested after 48 hours of treatment with the indicated chemotherapeutic drugs. Attached cells were detached using 5 mM EDTA in PBS. The recovered cells were centrifuged at 250×g for 5 minutes, washed once in PBS containing 0.9 mM Ca2+ and 0.5 mM Mg2+ and then stained with AnnV-FITC for 15 minutes in Annexin binding buffer at room temperature according to the manufacturer's protocol (Biolegend). Cells were co-stained with DAPI at a final concentration of 1 μg/ml for 2 minutes in Annexin binding buffer, brought to a final volume of 500 ul using PBS containing 0.9 mM Ca2^+ and 0.5 mM Mg2^+ and analyzed by flow cytometry.
To identify how DNA-damaging chemotherapy could be optimally used to enhance anti-tumor immune function, cytotoxicity assays were performed using the B16F10 melanoma tumor cell line expressing ovalbumin (B16-Ova). Cells were treated with clinically used chemotherapeutic agents followed by assaying for cell death by DAPI and Annexin V staining 48 hours later.

B16-Ova cells = assay: HMGB1 in cell culture media by ELISA; format: cell-based, mouse; settings: for HMGB1 (ng/ml) MEAN: culture media 24-48 hours after treatment
Description: Cell-free cell culture media was then analyzed by ELISA for HMGB1 according to the manufacturer's protocol.

B16-Ova tumors [2] = assay: Circulating H2-Kb/[…]-tetramer positive CD8+ T-cells in mice bearing B16-Ova tumors; format: in vivo, C57BL/6J WT mice; settings: bled after the second intra-tumoral dose
Description: Briefly, 50 μl of whole blood was collected by retro-orbital bleeding, centrifuged at 250×g for 5 min, followed by 3 rounds of RBC lysis in 200 ul of ACK buffer. Cells were then washed once in Tetramer stain buffer (PBS containing 5 mM EDTA, 1% BSA and 50 nM Dasatinib), and stained with PE-conjugated Tetramer for 40 min at RT, followed by co-staining with anti-CD8 for 10 min at 4° C. Cells were then stained with DAPI, washed and re-suspended in tetramer stain buffer for flow cytometry analysis.

BMDCs = assay: Viability of BMDCs upon exposure to etoposide
B16-Ova tumors [3] = assay: Flank B16-Ova tumors in mice: tumor size, survival, re-challenge; format: in vivo, C57BL/6J WT mice; settings: intratumoral injection alone, three weekly doses
Description: Cross-sectional area of tumors was measured in mm^2 using calipers every 2-3 days. In tumor re-challenge experiments, naive mice controls or mice who had complete tumor regression and remained tumor free for at least 60 days were subcutaneously injected in the left flank (contra-lateral to the initial tumor) with 0.1×10^6 B16-Ova cells, and tumor development was monitored for another 60 days.

B16-Ova tumors [4] = assay: Immunophenotyping of intra-tumoral DC by flow cytometry; format: in vivo, mice; settings: combined with checkpoint blockade; after 2 doses of vaccine or etoposide and 3 doses of checkpoint blockade
Description: Phenotypic characterization of immune cell populations was performed by flow cytometry. Briefly, tumors were harvested and mashed through a […] filter. Collected cells were washed in FACS buffer (PBS containing 5 mM EDTA and 1% BSA), resuspended, and counted. Five million cells from each sample were stained with fluorophore-conjugated antibodies on ice for 30 min, co-stained with Aqua, washed, resuspended in 450 μl, supplemented with 50 μl of CountBright absolute counting beads, and analyzed on a BD LSR Fortessa flow cytometer. DCs were scored as CD45+Ly6CCD24+MHCII+F480−(CD11b+ or CD103+) cells using the gating strategy described in Broz M L, et al., Cancer Cell, 8; 26(6):938 (2014).
To test whether the efficacy of the tumor cell vaccine and checkpoint combination treatment for an anti-tumor immune response depends on DCs that can cross-present tumor antigens, the numbers of CD11b^+C103^−DC2 cells and CD11b^−CD103^+DC1 cells were enumerated by immunophenotyping and flow cytometry. […] As before, mice bearing flank B16-Ova tumors were treated with saline or the tumor cell vaccine intra-tumorally, in the presence or absence of systemic checkpoint blockade (FIG. 5A), and analyzed. […]

Structure (SMILES)	cell death by DAPI and Annexin V staining [1]	cytotoxicity at 10 µM ([1]; read-out: AnnV+DAPI+ (%) Mean) [%]	cytotoxicity at 10 µM ([1]; read-out: AnnV+DAPI− (%) Mean) [%]	cytotoxicity at 10 µM ([1]; read-out: AnnV−DAPI+ (%) Mean) [%]	viability at 10 µM [1] [%]	cytotoxicity at 50 µM ([1]; read-out: AnnV+DAPI+ (%) Mean) [%]	cytotoxicity at 50 µM ([1]; read-out: AnnV+DAPI− (%) Mean) [%]	cytotoxicity at 50 µM ([1]; read-out: AnnV−DAPI+ (%) Mean) [%]	viability at 50 µM [1] [%]	HMGB1 (ng/ml) MEAN (B16-Ova cells; 10 uM) [ng/mL]	HMGB1 (ng/ml) MEAN (B16-Ova cells; 50 uM) [ng/mL]	H2-Kb-SIINFEKL (SEQ ID NO: 1)-specific T-cells (%) MEAN (B16-Ova tumors [2]) [%]	viability of BMDCs (BMDCs)	tumor growth (B16-Ova tumors [3])	number of CD103+DC1 in tumors (B16-Ova tumors [4])	HMGB1 release into the media (B16-Ova cells; 24-48 hours post-treatment window)
O=C1c2c(O)ccc(O)c2C(=O)c2c(NCCNCCO)ccc(NCCNCCO)c21 [Mito, mitoxantrone]	caused varying extents of apoptotic and non-apoptotic cell death	52.4	17.1	9.44	21.1	73.8	11.7	8.5	6.08	70.09	14.63					
COc1cc([C@@H]2c3cc4c(cc3[C@@H](O[C@@H]3O[C@@H]5CO[C@@H](C)O[C@H]5[C@H](O)[C@H]3O)[C@H]3COC(=O)[C@H]23)OCO4)cc(OC)c1O [Etop, etoposide]	caused varying extents of apoptotic and non-apoptotic cell death	51	11.6	6.54	30.9	47.9	10.9	4.57	36.6	29.24	10.65	0.29	significantly reduced	no effect on tumor growth	did not enhance numbers of CD103+DC1	lowest levels of HMGB1 release
